From article PMC7076440, “New Preclinical Development of a c-Met Inhibitor and Its Combined Anti-Tumor Effect in c-Met-Amplified NSCLC” (Pharmaceutics, 2020)
“And” between values parts separate entries of the source, which are not always exact repeats. Identical values can stand only once.

Legend:
[1] = Pharmacokinetic study in beagle dogs; type: in vivo; conditions: for BA: PO; for BA / Tmax / AUC(0-inf) / AUC(0-t) / Cmax / MRT last / half-life: beagle dogs
Source text: Male beagle dogs were purchased from Marshall, Beijing, China. They were housed under controlled humidity, temperature, and a 12L:12D lighting schedule. Before the experiment, the animals were fed less than 300 g/day for 2 days and those with a body weight around 7.0 ± 0.5 kg were selected for the pharmacokinetic study (n = 3). They were fasted overnight before the experiments but allowed to drink water. This study was reviewed, assessed, and approved by the Institutional Animal Care and Use Committee (IACUC) of the Korea Institute of Toxicology (KIT). The project identification codes were N117008 and N116047, signed on 31 May 2017. For the experiments, 0.5-mL blood samples were collected from each animal at selected intervals and loaded into K2-EDTA tubes. After centrifugation at 13,200 rpm for 5 min, quantitative analysis was performed using LC-MS/MS. Acetic acid buffer (0.1 M) at pH 4.0 with 20% PEG400 was selected as the intravenous solution for ABN401 and WinNonlinTM (Version 5.2.1, Pharsight, USA) was used to calculate the pharmacokinetic parameters (i.e., T1/2: terminal half-life, Cmax: maximum observed peak concentration, Tmax: time to reach Cmax, AUClast: area under the time-concentration curve from zero to the last quantifiable time-point, AUCinf: area under the time-concentration curve from zero to infinity, MRTlast: mean residence time from zero to the last quantifiable time-point). The bioavailability (BA) of each dose was calculated using the following equation:Bioavailability = (AUClast_po/AUClast_iv) × 100(5)
HPLC system (Agilent 1200, Santa Clara, CA, USA), consisting of a binary pump, a degasser, and a refrigerated autosampler (at 10 °C), was used in this study. Analytical samples were separated on the Agilent Eclipse XDB-C18 (3.5 um, 2.1 × 50 mm) at 23 °C. The mobile phase was composed of solvent A (10 mM ammonium formate in purified water) and solvent B (0.1 % formic acid in acetonitrile) and delivered at a flow rate of 0.3 mL/min. In this study, the gradient separation (i.e., the initial condition of the mobile phase consisted of 80% of solvent A and 20% of solvent B, then solvent A was decreased to 0% within 2 min and maintained for 5 min, followed by an increase to 80% within 0.2 min, maintained until 10 min) was used with a 10-min run time per sample. The MS system was composed of an API 4000 Sciex triple quadruple mass spectrometer (AB Sciex, Framingham, MA, USA). The triple quadrupole mass spectrometer was equipped with a turbo ion spray source. The MS/MS detection involved multiple reaction-monitoring in the positive ionization mode. The intensive tracer ion mass for each compound was 567.5 → 467.2 for ABN401 and 237.3 → 194.11 for carbamazepine as an internal standard. The conditions for the electrospray interface were: curtain gas, 20 psi; collision gas, medium; ion spray voltage, 5000 V; temperature, 500°C; ion source gas 1, 50 psi and ion source gas 2, 55 psi. The optimized voltage parameters for the analytes were as follows: declustering potential (61 V), entrance potential (10 V), collision energy (28 V), and collision cell exit potential (12 V). Data acquisition, quantification, and calculations were performed with the Analyst software version 1.4.2 (AB Sciex, Framingham, MA, USA).

[2] = Dissolution test, USP Apparatus 2; type: physicochemical; conditions: for time to reach 100% release: 50 and 200 mg
Experimental: A dissolution test was carried out according to USP 36 Apparatus 2 (paddle method) at 100 rpm using 900 mL of dissolution medium maintained at 37 ± 0.5 °C (Varian 705 DS; Varian, Cary, NC, USA). Each capsule was enclosed in a stationary sinker (20 × 12 mm) to prevent the capsule from floating on the surface of the dissolution medium or sticking to the inner surface of the dissolution vessels (n = 4). The drug content was analyzed with an HPLC system using samples collected in Eppendorf tubes and centrifuged for 1 min.

[3] = log D / log P, octanol/water; type: physicochemical
Experimental: ABN401 solution (10 μg/mL) was mixed with octanol at a ratio of 1:1 in a glass vial and placed horizontally in a Digital Bio Rotator (SeoLin Bioscience, Seongnam, Korea), and shaken at a constant 90 rpm for 24 h. After 6 h of equilibrium under room temperature, two phases of water and octanol were separated using a separating funnel. The experiment was repeated five times. The concentration of ABN401 at each phase was analyzed by HPLC and log P and log D were calculated using the Henderson-Hasselbalch equation below with the previously determined pKa value. (4) logDbases =logP+log⎣1/(1+ 10^pKa−pH)⎦

Dynamic vapor sorption = type: physicochemical; conditions: 25 °C, 5% to 95% RH
Experimental: Moisture sorption analyses were utilized using a VTI-SA vapor sorption analyzer (TA Instruments, New Castle, DE, USA). API was placed into the sample holder. The percentage of relative humidity (% RH) in the chamber was increased from 5% to 95% RH for moisture adsorption, followed by a decrease in % RH from 95% to 5% for moisture desorption. A drying phase (i.e., 40 °C, less than 0.01% weight loss in 2 min) was set to run before to the analysis. The temperature was set at a 25 °C throughout the analysis. The program criteria were set to 0.0001% weight change or 2 min stability of weight gained or lost before the program could proceed to the next set parameter.

[4] = male, beagle, dog, plasma, iv, 1 mg/kg, mean ± SD
[5] = male, beagle, dog, plasma, po, 1 mg/kg, capsule with MCC, mean ± SD
[6] = male, beagle, dog, plasma, po, 5 mg/kg, capsule with MCC, mean ± SD
[7] = male, beagle, dog, plasma, po, 5 mg/kg, capsule without MCC, mean ± SD
[8] = male, beagle, dog, plasma, po, 10 mg/kg, capsule with MCC, mean ± SD

CN1CCN(Cc2ccc(-c3cnc(N4CCOC(Cn5nnc6ncc(-c7cnn(C)c7)nc65)C4)nc3)cc2)CC1 (stereo not shown) [ABN401]
BA ([1]; 1 mg/kg, capsule with MCC, mean ± SD): 28.3 ± 15.8% | BA ([1]; 5 mg/kg, capsule with MCC, mean ± SD): 30.7% and 30.7 ± 1.7% | BA ([1]; 5 mg/kg, capsule without MCC, mean ± SD): 30.7% and 30.7 ± 15.1% | BA ([1]; 10 mg/kg, capsule with MCC, mean ± SD): 11.3 ± 2.7% | Tmax ([1]; male, beagle, dog, plasma, iv, 1 mg/kg): 0.083 h | AUC(0-inf) [1, 4]: 287 ± 108 ng·h/mL | AUC(0-t) [1, 4]: 266 ± 105 ng·h/mL | Cmax [1, 4]: 308 ± 271 ng/mL | MRT last [1, 4]: 1.5 ± 0.7 h | half-life [1, 4]: 1.9 ± 0.7 h | AUC(0-inf) [1, 5]: 96.2 ± 40.7 ng·h/mL | AUC(0-t) [1, 5]: 75.4 ± 42 ng·h/mL | Cmax [1, 5]: 8 ± 3.8 ng/mL | MRT last [1, 5]: 7.6 ± 2.5 h | Tmax [1, 5]: 1.3 ± 0.6 h | half-life [1, 5]: 9.4 ± 3.2 h | AUC(0-inf) [1, 6]: 456 ± 28.5 ng·h/mL | AUC(0-t) [1, 6]: 409 ± 23 ng·h/mL | Cmax [1, 6]: 50.8 ± 12.4 ng/mL | MRT last [1, 6]: 8.6 ± 2.7 h | Tmax [1, 6]: 1.5 ± 0.7 h | half-life [1, 6]: 7.6 ± 4.5 h | AUC(0-inf) [1, 7]: 425 ± 218 ng·h/mL | AUC(0-t) [1, 7]: 409 ± 201 ng·h/mL | Cmax [1, 7]: 60.3 ± 29.1 ng/mL | MRT last [1, 7]: 6.4 ± 0.7 h | Tmax [1, 7]: 2 h | half-life [1, 7]: 4.9 ± 0.9 h | Tmax ([1]; male, beagle, dog, plasma, po, 10 mg/kg, across the doses 1, 5, 10 mg/kg): 1.3 to 2 h | AUC(0-inf) [1, 8]: 424 ± 186 ng·h/mL | AUC(0-t) [1, 8]: 302 ± 72 ng·h/mL | Cmax [1, 8]: 52.5 ± 13.5 ng/mL | MRT last [1, 8]: 6.3 ± 3.4 h | Tmax [1, 8]: 2 h | half-life [1, 8]: 7.7 ± 5.8 h | bioavailability ([1]; male, beagle, dog, plasma, oral, dogs, except at 10 mg/kg): ~30% | dissolved in less than 45 min ([2]; 50 mg physical blend capsules with and without excipients (starch, MCC), pH 1.2 medium): above 85% | time to reach 100% release ([2]; high shear granulated blend in capsule): ≤ 60 min | time to reach 100% release ([2]; optimized granulation blend in capsule, pH 1.2 medium): ≤ 30 min | logD ([3]; average ± SD of five runs): 1.41 ± 0.08 | logP at 24 h ([3]; average ± SD of five runs): 2.46 ± 0.04 | logD ([3]; pH 6.4, run 3, pH 6.40): 1.37 | logP at 24 h ([3]; run 1, from log D and pKa (Henderson-Hasselbalch)): 2.41 | logD ([3]; run 1, pH 6.41): 1.3 | logP at 24 h ([3]; run 2, from log D and pKa): 2.43 | logD ([3]; run 2, pH 6.59): 1.48 | logP at 24 h ([3]; run 3, from log D and pKa): 2.5 | logP at 24 h ([3]; run 4, from log D and pKa): 2.51 | logD ([3]; run 4, pH 6.49): 1.47 | logP at 24 h ([3]; run 5, from log D and pKa): 2.45 | logD ([3]; run 5, pH 6.53): 1.45 | moisture adsorption (Dynamic vapor sorption): relatively less adsorptive to moisture
